Calls of active or inactive are those of the source. The calls are words filed in the database; no cut-off is given here.
What was measured:
[1] = molecular target: Free fatty acid receptor 1 (Homo sapiens, UniProt O14842); assay: Agonist activity at human GPR40 expressed in HEK293 cells assessed as increase in IP1 accumulation after 60 mins by HTRF assay; assay type: functional, cell-based
[2] = molecular target: T1, Free fatty acid receptor 4 (Homo sapiens, UniProt Q5NUL3); assay: Agonist activity at human GPR120 short isoform expressed in CHOK1 cells assessed as increase in IP1 accumulation after 60 mins by HTRF assay; assay type: functional, cell-based, CHO-K1
T1 sequence (Q5NUL3 whole entry): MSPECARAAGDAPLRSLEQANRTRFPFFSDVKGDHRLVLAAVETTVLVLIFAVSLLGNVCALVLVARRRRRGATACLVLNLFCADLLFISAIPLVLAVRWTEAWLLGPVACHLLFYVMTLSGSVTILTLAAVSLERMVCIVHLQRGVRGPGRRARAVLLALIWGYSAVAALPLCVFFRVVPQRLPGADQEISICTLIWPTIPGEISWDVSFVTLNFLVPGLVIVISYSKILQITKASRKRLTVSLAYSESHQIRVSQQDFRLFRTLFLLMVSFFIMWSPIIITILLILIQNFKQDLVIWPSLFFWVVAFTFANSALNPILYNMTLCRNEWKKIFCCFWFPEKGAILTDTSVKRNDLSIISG

[3] = molecular target: T1, Free fatty acid receptor 4; assay: Agonist activity at human GPR120 short isoform expressed in CHOK1 cells assessed as beta-arrestin recruitment after 90 mins by luminescence assay; assay type: cell-based, CHO-K1
[4] = molecular target: T2, Free fatty acid receptor 4 (Homo sapiens) (UniProt Q5NUL3); assay: Agonist activity at human GPR120 short isoform expressed in CHOK1 cells assessed as increase in IP1 accumulation at 10 uM after 60 mins by HTRF assay; assay type: functional, cell-based; conditions: CHO-K1
T2 sequence (whole entry): T1 sequence (Q5NUL3 whole entry)

[5] = Protein binding in rat plasma at 0.1 mg/kg administered as iv casette dose by LC/MS/MS analysis; assay type: ADME, organism-based; conditions: read-out: PPB (converted)
[6] = Volume of distribution at steady state in rat plasma at 0.1 mg/kg administered as iv casette dose by LC/MS/MS analysis; assay type: ADME, organism-based; conditions: read-out: Vdss
[7] = Terminal half life in rat plasma at 0.1 mg/kg administered as iv casette dose by LC/MS/MS analysis; assay type: ADME, organism-based; conditions: read-out: beta t1/2 (converted)
[8] = Intrinsic clearance in rat plasma at 0.1 mg/kg administered as iv casette dose by LC/MS/MS analysis; assay type: ADME, organism-based; conditions: in vivo
[9] = Clearance in rat plasma at 0.1 mg/kg administered as iv casette dose by LC/MS/MS analysis; assay type: ADME, organism-based
[10] = molecular target: T3, Free fatty acid receptor 4 (Mus musculus, UniProt Q7TMA4); assay: Agonist activity at mouse GPR120 expressed in human U2OS cells assessed as beta-arrestin recruitment after 90 mins by luminescence assay; assay type: cell-based
T3 sequence (Q7TMA4 whole entry): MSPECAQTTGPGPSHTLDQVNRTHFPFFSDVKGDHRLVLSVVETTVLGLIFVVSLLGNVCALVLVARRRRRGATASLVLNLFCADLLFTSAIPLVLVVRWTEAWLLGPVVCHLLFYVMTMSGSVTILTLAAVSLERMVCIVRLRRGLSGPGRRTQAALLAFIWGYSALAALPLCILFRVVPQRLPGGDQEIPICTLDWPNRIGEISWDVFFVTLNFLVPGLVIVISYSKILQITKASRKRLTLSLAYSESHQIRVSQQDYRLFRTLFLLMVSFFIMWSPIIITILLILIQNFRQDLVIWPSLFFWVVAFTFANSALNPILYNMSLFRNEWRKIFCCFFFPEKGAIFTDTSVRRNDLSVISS

[11] = Plasma concentration in GPR120 knockout C57BL/6 transverse aortic constriction mouse at 150 mg/kg, po measured at 3 hrs; assay type: ADME, organism-based; conditions: C57BL/6, mouse
[12] = molecular target: T3, Free fatty acid receptor 4; assay: Agonist activity at mouse GPR120 expressed in CHOK1 cells assessed as increase in IP1 accumulation after 60 mins by HTRF assay; assay type: functional, cell-based, CHO-K1
Mus musculus = assay: In vivo agonist activity at GPR120 in wild type C57BL/6 transverse aortic constriction mouse assessed as glucose lowering effect at 150 mg/kg, po via gavage pretreated for 60 mins followed by dextrose challenge measured up to 120 mins post glucose challenge by OGTT; assay type: functional, organism-based
[13] = Plasma concentration in wild type C57BL/6 transverse aortic constriction mouse harboring GPR120 at 150 mg/kg, po measured at 3 hrs; assay type: ADME, organism-based; conditions: C57BL/6, mouse
[14] = molecular target: Free fatty acid receptor 1 (Mus musculus, UniProt Q76JU9); assay: Agonist activity at mouse GPR40 assessed as increase in IP1 accumulation after 60 mins by HTRF assay; assay type: functional
Chain of Free fatty acid receptor 1 (Mus musculus, UniProt Q76JU9) (Q76JU9 whole entry): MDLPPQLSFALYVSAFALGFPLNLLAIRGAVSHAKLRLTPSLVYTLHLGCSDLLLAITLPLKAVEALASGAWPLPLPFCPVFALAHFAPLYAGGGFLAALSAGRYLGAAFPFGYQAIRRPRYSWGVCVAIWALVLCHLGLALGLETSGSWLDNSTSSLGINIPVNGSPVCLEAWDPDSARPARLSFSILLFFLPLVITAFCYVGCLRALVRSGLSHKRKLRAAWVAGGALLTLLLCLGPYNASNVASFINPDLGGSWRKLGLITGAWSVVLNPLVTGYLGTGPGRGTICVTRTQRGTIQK

Chain of Free fatty acid receptor 1 (Homo sapiens, UniProt O14842) (O14842 whole entry, canonical isoform): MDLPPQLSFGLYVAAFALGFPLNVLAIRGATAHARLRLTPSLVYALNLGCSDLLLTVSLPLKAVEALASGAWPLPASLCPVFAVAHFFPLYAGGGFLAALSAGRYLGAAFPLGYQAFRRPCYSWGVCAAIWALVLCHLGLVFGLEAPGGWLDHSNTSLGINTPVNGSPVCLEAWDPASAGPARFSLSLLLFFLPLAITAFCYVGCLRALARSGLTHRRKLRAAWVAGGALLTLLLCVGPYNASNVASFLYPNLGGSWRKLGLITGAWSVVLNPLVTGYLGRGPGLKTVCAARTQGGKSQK

SMILES	EC50 [1] [nM]	EC50 [2] [nM]	EC50 [3] [nM]	Activity [4] [%]	fraction unbound [5]	Vd [6] [L/kg]	half-life [7] [h]	CL [8] [mL/min/kg]	clearance [9] [mL/min/kg]	EC50 [10] [nM]	concentration at 3 h [11] [µM]	EC50 [12] [nM]	Activity (Mus musculus)	concentration at 3 h [13] [µM]	EC50 [14] [nM]
COc1cc(OC2CCC2)cc(-c2ccc3c(c2)CC[C@H](CCC(=O)O)O3)c1F	> 10000	15	9	> 50	–	–	–	–	–	–	–	–	–	–	–
COc1cc(OC2CCC2)cc(-c2ccc3c(c2)CC[C@H]([C@@H]2C[C@H]2C(=O)O)O3)c1F	> 10000	25	8	> 50	–	–	–	–	–	–	–	–	–	–	–
COc1cc(Oc2ncc(C)s2)cc(-c2ccc3c(c2)CC[C@H](CCC(=O)O)O3)c1F	> 10000	37	13	> 50	0.0007	0.15	1.2	3600	1.6	–	–	–	–	–	–
COc1cc(OC(F)(F)F)cc(-c2ccc3c(c2)CC[C@H](CCc2nnn[nH]2)O3)c1F	> 10000	130	150	45	–	–	–	–	–	–	–	–	–	–	–
O=C(O)[C@H]1C[C@@H]1[C@H]1CCc2cc(-c3cc(OC(F)(F)F)ccc3F)ccc2O1	> 10000	320	130	> 50	–	–	–	–	–	–	–	–	–	–	–
CO[C@H]1C[C@H](Oc2cc(F)c(F)c(-c3ccc4c(c3)CC[C@H](CCc3nnn[nH]3)O4)c2)C1	> 10000	240	170	24	–	–	–	–	–	–	–	–	–	–	–
O=C(O)CC[C@H]1CCc2cc(-c3cc(OC4CCC4)cc(Cl)c3F)ccc2O1	> 10000	40	8.3	> 50	–	–	–	–	–	–	–	–	–	–	–
COc1cc(O[C@H]2C[C@H](OC)C2)nc(-c2ccc3c(c2)CC[C@H](CCC(=O)O)O3)c1F	> 10000	14	5	> 50	0.0032	0.49	2.4	760	3.4	4.6	27.6	5.6	Active	33.5	> 10000
O=C(O)[C@@H]1C[C@H]1[C@H]1CCc2cc(-c3cc(OC(F)(F)F)ccc3F)ccc2O1	> 10000	69	33	> 50	–	–	–	–	–	–	–	–	–	–	–
O=C(O)CC[C@@H]1CCc2cc(-c3cc(OC(F)(F)F)ccc3F)ccc2O1	> 10000	180	42	> 50	–	–	–	–	–	–	–	–	–	–	–
COc1cc(OC2CC2)cc(-c2ccc3c(c2)CC[C@H](CCc2nnn[nH]2)O3)c1F	> 10000	51	32	> 50	–	–	–	–	–	–	–	–	–	–	–
O=C(O)CC[C@H]1CCc2cc(-c3cc(OC(F)(F)F)ccc3F)ccc2O1	2100	170	17	> 50	0.0016	0.64	1.3	10500	9.5	–	–	–	–	–	–
Cc1cnc(Oc2cc(Cl)c(F)c(-c3ccc4c(c3)CC[C@H](CCC(=O)O)O4)c2)s1	> 10000	14	5.6	> 50	0.0003	0.14	0.93	6200	1.6	–	–	–	–	–	–
COc1cc(O[C@H]2C[C@H](OC)C2)cc(-c2ccc3c(c2)CC[C@H](CCc2nnn[nH]2)O3)c1F	> 10000	53	43	> 50	–	–	–	–	–	–	–	–	–	–	–
COc1cc(O[C@H]2C[C@H](OC)C2)cc(-c2ccc3c(c2)CC[C@H]([C@@H]2C[C@H]2C(=O)O)O3)c1F	> 10000	55	78	> 50	–	–	–	–	–	–	–	–	–	–	–
O=C(O)CC[C@H]1CCc2cc(-c3cc(OC4CCC4)cnc3F)ccc2O1	> 10000	79	140	> 50	–	–	–	–	–	–	–	–	–	–	–
O=C(O)CC[C@H]1CCc2cc(-c3cc(OC4CCC4)ncc3F)ccc2O1	2000	250	230	> 50	–	–	–	–	–	–	–	–	–	–	–
COc1cc(OC2CCC2)nc(-c2ccc3c(c2)CC[C@H](CCC(=O)O)O3)c1F	> 10000	15	6.2	> 50	–	–	–	–	–	–	–	–	–	–	–
O=C(O)CC[C@H]1CCc2cc(-c3cc(OC4CCC4)cc(F)c3F)ccc2O1	> 10000	21	13	> 50	0.0007	0.45	1.3	8700	5.4	–	–	–	–	–	–
Fc1ccc(OC(F)(F)F)cc1-c1ccc2c(c1)CC[C@H](CCc1nnn[nH]1)O2	> 10000	330	890	17	–	–	–	–	–	–	–	–	–	–	–
COc1cc(OC(F)(F)F)cc(-c2ccc3c(c2)CC[C@H](CCC(=O)O)O3)c1F	4400	25	11	> 50	–	–	–	–	–	–	–	–	–	–	–
COc1cc(OC2CCC2)nc(-c2ccc3c(c2)CC[C@H]([C@@H]2C[C@H]2C(=O)O)O3)c1F	> 10000	18	7.8	> 50	–	–	–	–	–	–	–	–	–	–	–
O=C(O)CC[C@H]1CCc2cc(-c3cc(OC4CCC4)ccc3F)ccc2O1	3600	28	10	> 50	–	–	–	–	–	–	–	–	–	–	–
O=C(O)CC[C@H]1CCc2cc(-c3nc(OC4CCC4)ccc3F)ccc2O1	> 10000	30	21	> 50	0.0023	0.23	0.74	4500	9.1	–	–	–	–	–	–
O=C(O)CC[C@H]1CCc2cc(-c3cc(OC(F)(F)F)cc(Cl)c3F)ccc2O1	2200	72	17	> 50	–	–	–	–	–	–	–	–	–	–	–

From ChEMBL document CHEMBL3871307, “Discovery of Chromane Propionic Acid Analogues as Selective Agonists of GPR120 with in Vivo Activity in Rodents” (ACS Med Chem Lett, 2017)
